From ChEMBL document CHEMBL4138182, “Aminomethylation of heliomycin: Preparation and anticancer characterization of the first series of semi-synthetic derivatives” (Eur J Med Chem, 2018)
Active and inactive are the calls of the source. The rule behind the calls is not given here.

Tests used:
[1] = system: K562; assay: Antiproliferative activity against human K562 cells after 72 hrs by MTT assay; assay type: functional, cell-based; settings: K562, 72 h
[2] = system: HeLa; assay: Antiproliferative activity against human HeLa cells after 72 hrs by MTT assay; assay type: functional, cell-based
[3] = system: HCT-116; assay: Antiproliferative activity against human HCT116 cells after 72 hrs by MTT assay; assay type: functional, cell-based; settings: HCT-116, 72 h
[4] = system: CCRF-CEM; assay: Antiproliferative activity against human CEM cells after 72 hrs by MTT assay; assay type: functional, cell-based
[5] = Antiproliferative activity against human K562/4 cells after 72 hrs by MTT assay; assay type: functional, cell-based; settings: K562/4, 72 h
[6] = system: HCT-116; assay: Antiproliferative activity against p53 deficient human HCT116 cells after 72 hrs by MTT assay; assay type: functional, cell-based; settings: HCT-116, 72 h
[7] = system: L1210; assay: Antiproliferative activity against mouse L1210 cells after 72 hrs by MTT assay; assay type: functional, cell-based; settings: L1210, 72 h
[8] = Selectivity index, ratio of IC50 for HMEC1 cells to IC50 for human HCT116 cells; assay type: toxicity; settings: HMEC1 cells and HCT116 cells, read-out: Ratio IC50
[9] = system: T-24; assay: Growth inhibition of human T24 cells after 72 hrs by cell impedance method; assay type: functional, cell-based; settings: T-24, 72 h
[10] = system: T-24; assay: Induction of reactive oxygen species generation in human T24 cells at 1 uM after 30 mins by H2DCFDA dye-based flow cytometric method; assay type: functional, cell-based
[11] = system: Calf thymus DNA; assay: Binding affinity to calf thymus double stranded DNA at 10 uM by fluorescence spectrophotometer; assay type: nucleic-acid assay; settings: Bos taurus
[12] = system: T-24; assay: Induction of apoptosis n human T24 cells at 1 uM after 24 hrs by annexin V-FITC/propidium iodide staining-based flow cytometric method; assay type: functional, cell-based
[13] = Selectivity index, ratio of IC50 for HMEC1 cells to IC50 for mouse L1210 cells; assay type: toxicity; settings: HMEC1 cells and L1210 cells, read-out: Ratio IC50
[14] = system: T-24; assay: Induction of apoptosis n human T24 cells assessed as PARP cleavage at 0.5 to 1 uM after 18 hrs by Western blot method; assay type: functional, cell-based
[15] = system: Calf thymus DNA; assay: Binding affinity to calf thymus double stranded DNA by Benesi-Hildebrand plot analysis; assay type: nucleic-acid assay, Bos taurus; settings: for Kb: Bos taurus
[16] = system: HMEC-1; assay: Antiproliferative activity against HMEC1 cells after 72 hrs by MTT assay; assay type: cell-based; settings: Homo sapiens, HMEC-1, 72 h
[17] = system: T-24; assay: Induction of apoptosis n human T24 cells assessed as caspase-3 cleavage at 0.5 to 1 uM after 18 hrs by Western blot method; assay type: functional, cell-based
[18] = target: T1, DNA topoisomerase 1 (Homo sapiens) (UniProt P11387); assay: Inhibition of human DNA topoisomerase 1 assessed as decrease in relaxation of pBR322 at <= 20 uM after 30 to 40 mins by agarose gel electrophoresis
T1 sequence (whole entry): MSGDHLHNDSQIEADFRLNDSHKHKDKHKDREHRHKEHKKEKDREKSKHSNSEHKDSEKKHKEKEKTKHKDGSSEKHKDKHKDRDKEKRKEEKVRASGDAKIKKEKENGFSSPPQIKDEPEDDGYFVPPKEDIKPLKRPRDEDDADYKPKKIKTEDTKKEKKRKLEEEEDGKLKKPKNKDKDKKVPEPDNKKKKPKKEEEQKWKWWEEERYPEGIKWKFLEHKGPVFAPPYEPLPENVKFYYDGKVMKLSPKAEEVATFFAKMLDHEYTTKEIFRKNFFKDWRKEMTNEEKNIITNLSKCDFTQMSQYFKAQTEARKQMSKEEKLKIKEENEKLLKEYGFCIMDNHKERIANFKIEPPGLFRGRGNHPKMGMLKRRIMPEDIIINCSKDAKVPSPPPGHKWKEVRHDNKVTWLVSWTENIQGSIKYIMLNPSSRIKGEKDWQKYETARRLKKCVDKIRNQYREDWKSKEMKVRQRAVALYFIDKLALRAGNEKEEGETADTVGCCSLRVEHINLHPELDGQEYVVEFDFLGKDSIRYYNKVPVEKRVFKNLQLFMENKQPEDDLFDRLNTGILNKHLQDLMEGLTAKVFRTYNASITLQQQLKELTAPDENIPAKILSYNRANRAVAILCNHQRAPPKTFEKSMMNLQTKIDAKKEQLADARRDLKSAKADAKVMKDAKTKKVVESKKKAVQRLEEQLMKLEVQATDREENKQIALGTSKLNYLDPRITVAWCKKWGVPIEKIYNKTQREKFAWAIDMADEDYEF

[19] = system: T-24; assay: Induction of apoptosis n human T24 cells assessed as upregulation of Bak levels at 0.5 to 1 uM after 18 hrs by Western blot method; assay type: functional, cell-based
[20] = Selectivity index, ratio of IC50 for HMEC1 cells to IC50 for p53 deficient human HCT116 cells; assay type: toxicity; settings: HMEC1 cells and p53 deficient HCT116 cells, read-out: Ratio IC50
[21] = Selectivity index, ratio of IC50 for HMEC1 cells to IC50 for human K562 cells; assay type: toxicity; settings: HMEC1 cells and K562 cells, read-out: Ratio IC50
[22] = Selectivity index, ratio of IC50 for HMEC1 cells to IC50 for human K562/4 cells; assay type: toxicity; settings: HMEC1 cells and K562/4 cells, read-out: Ratio IC50
[23] = system: T-24; assay: Induction of apoptosis n human T24 cells assessed as upregulation of p53 levels at 0.5 to 1 uM after 18 hrs by Western blot method; assay type: functional, cell-based
[24] = system: T-24; assay: Induction of apoptosis n human T24 cells assessed as downregulation of Bcl-2 levels at 0.5 to 1 uM after 18 hrs by Western blot method; assay type: functional, cell-based
[25] = target: T1, DNA topoisomerase 1 (Homo sapiens); assay: Inhibition of human DNA topoisomerase 1 assessed as decrease in relaxation of pBR322 at 5 to 20 uM after 30 to 40 mins by agarose gel electrophoresis
[26] = Selectivity index, ratio of IC50 for HMEC1 cells to IC50 for human HeLa cells; assay type: toxicity; settings: HMEC1 cells and HeLa cells, read-out: Ratio IC50
[27] = Selectivity index, ratio of IC50 for HMEC1 cells to IC50 for human CEM cells; assay type: toxicity; settings: HMEC1 cells and CEM cells, read-out: Ratio IC50

## Cc1cc(O)c2c3c4c(cc(O)c13)C(C)(C)C(=O)c1c(O)c(CN3CCN(CCO)CC3)c(O)c(c1-4)C2=O
[1]
  IC50: 2700 nM
[2]
  IC50: 4.8 µM
[3]
  IC50: 3700 nM
[4]
  IC50: 5.2 µM
[5]
  IC50: 4.2 µM
[6]
  IC50: 1300 nM
[7]
  IC50: 3 µM

## CCN1CCN(Cc2c(O)c3c4c(c2O)C(=O)C(C)(C)c2cc(O)c5c(C)cc(O)c(c5c2-4)C3=O)CC1
[1]
  IC50: 900 nM
[2]
  IC50: 0.8 µM
[3]
  IC50: 1600 nM
[4]
  IC50: 0.8 µM
[5]
  IC50: 3.4 µM
[6]
  IC50: 1700 nM
[7]
  IC50: 0.8 µM

## Cc1cc(O)c2c3c4c(cc(O)c13)C(C)(C)C(=O)c1c(O)c(CN3CCN(C)CC3)c(O)c(c1-4)C2=O
[1]
  IC50: 1200 nM
[2]
  IC50: 3.6 µM
[3]
  IC50: 3300 nM
[4]
  IC50: 2.1 µM
[5]
  IC50: 4.5 µM
[6]
  IC50: 500 nM
[7]
  IC50: 2.3 µM

## Cc1cc(O)c2c3c4c(cc(O)c13)C(C)(C)C(=O)c1c(O)c(CN3CCNCC3)c(O)c(c1-4)C2=O
[1]
  IC50: 2500 nM
[2]
  IC50: 5.4 µM
[3]
  IC50: 4800 nM
[4]
  IC50: 5.6 µM
[5]
  IC50: 5.8 µM
[6]
  IC50: 1800 nM
[7]
  IC50: 4.2 µM

## Cc1cc(O)c2c3c4c(cc(O)c13)C(C)(C)C(=O)c1c(O)c(CN(C)C)c(O)c(c1-4)C2=O
[8]
  selectivity ratio: 2 to 50
[9]
  IC50: 4.7 µM
[10]
  Activity: Active
[11]
  Activity: Active
[12]
  Activity: Active
[13]
  selectivity ratio: 2 to 50
[1]
  IC50: 700 nM
[14]
  Activity: Active
[2]
  IC50: 28.3 µM
[3]
  IC50: 1100 nM
[15]
  Kd: 34 µM
  Kb: 3 ×10⁴ /M
[16]
  IC50: 32.6 µM
[4]
  IC50: 17.1 µM
[17]
  Activity: Active
[5]
  IC50: 1 µM
[18]
  Topoisomerase 1 inhibition (active/inactive): Active
[19]
  Activity: Active
[20]
  selectivity ratio: 2 to 50
[21]
  selectivity ratio: 2 to 50
[22]
  selectivity ratio: 2 to 50
[23]
  Activity: Active
[6]
  IC50: 600 nM
[24]
  Activity: Active
[7]
  IC50: 17 µM

## Cc1cc(O)c2c3c4c(cc(O)c13)C(C)(C)C(=O)c1c(O)c(CN3CCC(N)CC3)c(O)c(c1-4)C2=O
[9]
  IC50: 4.4 µM
[10]
  Activity: Active
[11]
  Activity: Active
[12]
  Activity: Active
[1]
  IC50: 600 nM
[14]
  Activity: Active
[2]
  IC50: 2.6 µM
[3]
  IC50: 1200 nM
[15]
  Kd: 8.1 µM
  Kb: 1.2 ×10⁵ /M
[4]
  IC50: 2.3 µM
[17]
  Activity: Active
[5]
  IC50: 4.1 µM
[18]
  Topoisomerase 1 inhibition (active/inactive): Active
[19]
  Activity: Active
[25]
  inhibition: Active
[23]
  Activity: Active
[6]
  IC50: 700 nM
[24]
  Activity: Active
[7]
  IC50: 0.8 µM

## Cc1cc(O)c2c3c4c(cc(O)c13)C(C)(C)C(=O)c1c(O)c(CN3CCCC3)c(O)c(c1-4)C2=O
[1]
  IC50: 1200 nM
[2]
  IC50: 14.2 µM
[3]
  IC50: 200 nM
[4]
  IC50: 7.2 µM
[5]
  IC50: 3.4 µM
[6]
  IC50: 100 nM
[7]
  IC50: 14.1 µM

## Cc1cc(O)c2c3c4c(cc(O)c13)C(C)(C)C(=O)c1c(O)c(CNC(C)(C)C)c(O)c(c1-4)C2=O
[8]
  selectivity ratio: 2 to 50
[9]
  IC50: 1.1 µM
[10]
  Activity: Active
[12]
  Activity: Active
[1]
  IC50: 500 nM
[14]
  Activity: Active
[26]
  selectivity ratio: 2 to 50
[2]
  IC50: 0.7 µM
[3]
  IC50: 600 nM
[16]
  IC50: 7.8 µM
[4]
  IC50: 0.3 µM
[17]
  Activity: Active
[27]
  selectivity ratio: 2 to 50
[5]
  IC50: 1.6 µM
[19]
  Activity: Active
[20]
  selectivity ratio: 2 to 50
[21]
  selectivity ratio: 2 to 50
[22]
  selectivity ratio: 2 to 50
[23]
  Activity: Active
[6]
  IC50: 300 nM
[24]
  Activity: Active
[7]
  IC50: 8.8 µM
